From patent US5972953A, “Brain cell protective agent” (priority 1993, dated 1999)

Each compound was assayed on cultured nerve cells (cerebral cortex) (assay: cells). Details: Rattus norvegicus, Cerebral cortex neuron, 24 h, read-out: ED50.
Type: cell-based, Wistar rat
`O=C(/C=C/c1cccc(C(F)(F)F)c1)N(CC1CCCCC1)[C@@H]1CC[C@@]2(O)[C@H]3Cc4ccc(O)c5c4[C@@]2(CCN3CC2CC2)[C@H]1O5` [Compound 68, 17-cyclopropylmethyl-3,14β-dihydroxy-4,5α-epoxy-6β-(N-cyclohexylmethyl-3-trifluoromethylcinnamamido)morphinan] gave an EC50 of 100 nM.
Compound `CN(C(=O)/C=C/c1cccc(OC(F)(F)F)c1)[C@@H]1CC[C@@]2(O)[C@H]3Cc4ccc(O)c5c4[C@@]2(CCN3CC2CC2)[C@H]1O5` [Compound 120, 17-cyclopropylmethyl-3,14β-dihydroxy-4,5α-epoxy-6β-(N-methyl-3-trifluoromethoxycinnamamido)morphinan] has an EC50 of 1060 nM.

Same assay, conditions: Rattus norvegicus, Cerebral cortex neuron; 10 mM glutamate, 24 hours at 37° C., LDH leakage; read-out: ED50 (the source's name)
`CC(C)CN(C(=O)CCCCC1CCCCC1)[C@@H]1CC[C@@]2(O)[C@H]3Cc4ccc(O)c5c4[C@@]2(CCN3CC2CC2)[C@H]1O5` [Compound 62, 17-cyclopropylmethyl-3,14β-dihydroxy-4,5α-epoxy-6β-(N-isobutyl-5-cyclohexylpentanoamido)morphinan] was tested, and the EC50 was 140 nM.
`CC(C)N(C(=O)/C=C/c1cccc(C(F)(F)F)c1)[C@@H]1CC[C@@]2(O)[C@H]3Cc4ccc(O)c5c4[C@@]2(CCN3CC2CC2)[C@H]1O5` [Compound 64, 17-cyclopropylmethyl-3,14β-dihydroxy-4,5α-epoxy-6β-(N-isopropyl-3-trifluoromethylcinnamamido)morphinan] was tested, and the EC50 was 690 nM.
Work on `CC(C)CN(C(=O)CCCCCCCCCCc1ccccc1)[C@@H]1CC[C@@]2(O)[C@H]3Cc4ccc(O)c5c4[C@@]2(CCN3CC2CC2)[C@H]1O5` [Compound 60, 17-cyclopropylmethyl-3,14β-dihydroxy-4,5α-epoxy-6β-(N-isobutyl-11-phenylundecanoamido)morphinan] yielded an EC50 of 90 nM.
`CN(C(=O)/C=C/c1cccc(N=C=S)c1)[C@@H]1CC[C@@]2(O)[C@H]3Cc4ccc(O)c5c4[C@@]2(CCN3CC2CC2)[C@H]1O5` [Compound 117, 17-cyclopropylmethyl-3,14β-dihydroxy-4,5α-epoxy-6β-(N-methyl-3-isothiocyanatocinnamamido)morphinan] was tested, and the EC50 was 9570 nM.
`COCCOC(=O)N(C)[C@H]1CC[C@@]2(O)[C@H]3Cc4ccc(O)c5c4[C@@]2(CCN3CC2CC2)[C@H]1O5` [Compound 100, 17-cyclopropylmethyl-3,14β-dihydroxy-4,5α-epoxy-6α-(N-methyl-2-methoxyethoxycarbamido)morphinan] was tested, and the EC50 was 38800 nM.
In the case of `O=C(/C=C/c1cccc(C(F)(F)F)c1)N(CCc1ccccc1)[C@@H]1CC[C@@]2(O)[C@H]3Cc4ccc(O)c5c4[C@@]2(CCN3CC2CC2)[C@H]1O5` [Compound 67, 17-cyclopropylmethyl-3,14β-dihydroxy-4,5α-epoxy-6β-[N-(2-phenethyl)-3-trifluoromethylcinnamamido]morphinan], the EC50 is reported as 100 nM.
`CN(C(=O)C1CCCCC1)[C@H]1CC[C@@]2(O)[C@H]3Cc4ccc(O)c5c4[C@@]2(CCN3CC2CC2)[C@H]1O5` [Compound 31, 17-cyclopropylmethyl-3,14β-dihydroxy-4,5α-epoxy-6α-(N-methylcyclohexylcarboxamido)morphinan] gave an EC50 of 2530 nM.
`CC(C)CN(CCCCCCc1ccccc1)[C@H]1CC[C@@]2(O)[C@H]3Cc4ccc(O)c5c4[C@@]2(CCN3CC2CC2)[C@H]1O5` [Compound 97, 17-cyclopropylmethyl-3,14β-dihydroxy-4,5α-epoxy-6α-(N-isobutyl-6-phenylhexylamino)morphinan] was tested, and the EC50 was 160 nM.
`CN(C(=O)Nc1ccc(Cl)c(Cl)c1)[C@H]1CC[C@@]2(O)[C@H]3Cc4ccc(O)c5c4[C@@]2(CCN3CC2CC2)[C@H]1O5` [Compound 103, 17-Cyclopropylmethyl-3,14β-dihydroxy-4,5α-epoxy-6α-[N-methyl-N'-(3,4-dichlorophenyl)ureido]morphinan] was tested, and the EC50 was 540 nM.
Compound `Oc1ccc2c3c1O[C@H]1[C@H](N(Cc4ccccc4)CC4CCCCC4)CC[C@@]4(O)[C@@H](C2)N(CC2CC2)CC[C@]314` [Compound 11, 17-cyclopropylmethyl-3,14β-dihydroxy-4,5α-epoxy-6β-[N-(cyclohexylmethyl)benzylamino]morphinan] has an EC50 of 170 nM.
With `CN(C(=O)CC(=O)c1ccccc1)[C@@H]1CC[C@@]2(O)[C@H]3Cc4ccc(O)c5c4[C@@]2(CCN3CC2CC2)[C@H]1O5` [Compound 80, 17-cyclopropylmethyl-3,14β-dihydroxy-4,5α-epoxy-6β-(N-methylbenzoylacetoamido) morphinan] the EC50 was 7390 nM.
For `O=C(/C=C/c1ccoc1)S[C@@H]1CC[C@@]2(O)[C@H]3Cc4ccc(O)c5c4[C@@]2(CCN3CC2CC2)[C@H]1O5` (relative stereo) [Compound 119, 17-cyclopropylmethyl-4,5α-epoxy-3,14β-dihydroxy-6β-[trans-3-(3-furyl)acryloylthio]morphinan], the EC50 was 1470 nM.
Work on `CCN(C(=O)/C=C/c1cccc(C(F)(F)F)c1)[C@@H]1CC[C@@]2(O)[C@H]3Cc4ccc(O)c5c4[C@@]2(CCN3CC2CC2)[C@H]1O5` [Compound 63, 17-cyclopropylmethyl-3,14β-dihydroxy-4,5α-epoxy-6β-(N-ethyl-3-trifluoromethylcinnamarido)morphinan] yielded an EC50 of 1250 nM.
Work on `Oc1ccc2c3c1O[C@H]1[C@H](N(CCCc4ccccc4)Cc4ccccc4)CC[C@@]4(O)[C@@H](C2)N(CC2CC2)CC[C@]314` [Compound 12, 17-cyclopropylmethyl-3,14β-dihydroxy-4,5α-epoxy-6β-(N-3-phenylpropylbenzylamino) morphinan] yielded an EC50 of 130 nM.
Compound `CN(C(=S)NCc1ccccc1)[C@H]1CC[C@@]2(O)[C@H]3Cc4ccc(O)c5c4[C@@]2(CCN3CC2CC2)[C@H]1O5` [Compound 105, 17-cyclopropylmethyl-3,14β-dihydroxy-4,5α-epoxy-6α-(N-methyl-N'-benzylthioureido)morphinan] has an EC50 of 20600 nM.
In the case of `CCCCCC(=O)N(C)[C@@H]1CC[C@@]2(O)[C@H]3Cc4ccc(O)c5c4[C@@]2(CCN3CC2CC2)[C@H]1O5` [Compound 49, 17-cyclopropylmethyl-3,14β-dihydroxy-4,5α-epoxy-6β-(N-methylhexanoamido)morphinan], the EC50 is reported as 29900 nM.
Work on `CN(C(=O)/C=C/c1ccoc1)[C@@H]1CC[C@@]2(O)[C@H]3Cc4ccc(O)c5c4[C@@]2(CCN3CC2CC2)[C@H]1O5` (relative stereo) [Compound 43, 17-cyclopropylmethyl-3,14β-dihydroxy-4,5α-epoxy-6β-[N-methyl-trans-3-(3-furyl)acrylamido]morphinan] yielded an EC50 of 32600 nM.
`CCCCN(C(=O)/C=C/c1cccc(C(F)(F)F)c1)[C@@H]1CC[C@@]2(O)[C@H]3Cc4ccc(O)c5c4[C@@]2(CCN3CC2CC2)[C@H]1O5` [Compound 66, 17-cyclopropylmethyl-3,14β-dihydroxy-4,5α-epoxy-6β-(N-butyl-3-trifluoromethylcinnamamido)morphinan] gave an EC50 of 330 nM.
`O=C(CCCCCc1ccccc1)N(CCCc1ccccc1)[C@@H]1CC[C@@]2(O)[C@H]3Cc4ccc(O)c5c4[C@@]2(CCN3CC2CC2)[C@H]1O5` [Compound 72, 17-cyclopropylmethyl-3,14β-dihydroxy-4,5α-epoxy-6β-[N-(3-phenylpropyl)-6-phenylhexanoamido)morphinan] was tested, and the EC50 was 110 nM.
In the case of `CN(C(=O)c1ccc2ccccc2c1)[C@@H]1CC[C@@]2(O)[C@H]3Cc4ccc(O)c5c4[C@@]2(CCN3CC2CC2)[C@H]1O5` [Compound 52, 17-cyclopropylmethyl-3,14β-dihydroxy-4,5α-epoxy-6β-(N-methyl-2-naphthamido)morphinan], the EC50 is reported as 1490 nM.
`CCCCCN(C(=O)CCCCCc1ccccc1)[C@@H]1CC[C@@]2(O)[C@H]3Cc4ccc(O)c5c4[C@@]2(CCN3CC2CC2)[C@H]1O5` [Compound 70, 17-cyclopropylmethyl-3,14β-dihydroxy-4,5α-epoxy-6β-(N-pentyl-6-phenylhexanoamido)morphinan] showed an EC50 of 190 nM.
Work on `CC(=O)O[C@@]12CC[C@@H](N(C)C(=O)/C=C/c3ccccc3)[C@@H]3Oc4c(O)ccc5c4[C@@]31CCN(CC1CC1)[C@@H]2C5` [Compound 115, 17-cyclopropylmethyl-3-hydroxy-14β-acetoxy-4,5α-epoxy-6β-(N-methylcinnamamido)morphinan] yielded an EC50 of 5410 nM.
`CC(C)CN(C(=O)Cc1ccc(Cl)c(Cl)c1)[C@@H]1CC[C@@]2(O)[C@H]3Cc4ccc(O)c5c4[C@@]2(CCN3CC2CC2)[C@H]1O5` [Compound 39, 17-cyclopropylmethyl-3,14β-dihydroxy-4,5α-epoxy-6β-(N-isobutyl-3,4-dichlorophenylacetoamido)morphinan] was tested, and the EC50 was 390 nM.
`CN(C(=O)/C=C/c1ccccc1)[C@@H]1CC[C@@]2(O)[C@H]3Cc4ccc(O)c5c4[C@@]2(CCN3CC2CC2)[C@H]1O5` [Compound 76, 17-cyclopropylmethyl-3,14β-dihydroxy-4,5α-epoxy-6β-(N-methylcinnamamido)morphinan] was tested, and the EC50 was 6790 nM.
With `CN(C(=O)c1ccccc1)[C@@H]1CC[C@@]2(O)[C@H]3Cc4ccc(O)c5c4[C@@]2(CCN3CC2CC2)[C@H]1O5` [Compound 45, 17-cyclopropylmethyl-3,14β-dihydroxy-4,5α-epoxy-6β-(N-methylbenzamido)morphinan] the EC50 was 3720 nM.
With `CC(C)CN(CCCCCCc1ccccc1)[C@@H]1CC[C@@]2(O)[C@H]3Cc4ccc(O)c5c4[C@@]2(CCN3CC2CC2)[C@H]1O5` [Compound 98, 17-cyclopropylmethyl-3,14β-dihydroxy-4,5α-epoxy-6β-(N-isobutyl-6-phenylhexylamino)morphinan] the EC50 was 160 nM.
`CN([C@H]1CC[C@@]2(O)[C@H]3Cc4ccc(O)c5c4[C@@]2(CCN3CC2CC2)[C@H]1O5)S(=O)(=O)Cc1ccc(Cl)c(Cl)c1` [Compound 111, 17-cyclopropylmethyl-3,14β-dihydroxy-4,5α-epoxy-6α-(N-methyl-3,4-dichlorophenylmethanesulfonamido) morphinan] showed an EC50 of 540 nM.
`CCC/C=C/C(=O)N(C)[C@@H]1CC[C@@]2(O)[C@H]3Cc4ccc(O)c5c4[C@@]2(CCN3CC2CC2)[C@H]1O5` [Compound 75, 17-cyclopropylmethyl-3,14β-dihydroxy-4,5α-epoxy-6β-(N-methyl-trans-2-hexenoamido)morphinan] was tested, and the EC50 was 16500 nM.
`O=C(CCCCCc1ccccc1)N(CC(c1ccccc1)c1ccccc1)[C@@H]1CC[C@@]2(O)[C@H]3Cc4ccc(O)c5c4[C@@]2(CCN3CC2CC2)[C@H]1O5` [Compound 74, 17-cyclopropylmethyl-3,14β-dihydroxy-4,5α-epoxy-6β-[N-(2,2-diphenylethyl)-6-phenylhexanoamido)morphinan] was tested, and the EC50 was 220 nM.
